Measured values: ChEMBL document CHEMBL5550106, “Recent advances in the exploration of oxazolidinone scaffolds from compound development to antibacterial agents and other bioactivities” (Eur J Med Chem, 2024)
In brackets after ≈: the same amount, converted by molar mass.

Legend:
L02 = assay: Antiproliferative activity against human L02 cells assessed as inhibition of cell growth incubated for 24 hrs by MTT assay; type: functional, cell-based; settings: L02, 24 h
MGC-803 = assay: Antiproliferative activity against human MGC-803 cells assessed as reduction in cell growth by MTT assay; type: functional, cell-based
SK-OV-3 = assay: Antiproliferative activity against human SK-OV-3 cells assessed as reduction in cell viability incubated for 24 hrs by CCK8 assay; type: functional, cell-based; settings: SK-OV-3, 24 h
NCI-H460 = assay: Antiproliferative activity against human NCI-H460 cells assessed as inhibition of cell growth by MTT assay; type: functional, cell-based
Escherichia coli [1] = assay: Antibacterial activity against Escherichia coli MG1655 in presence of polymyxin B nonapeptide; type: functional
Escherichia coli [2] = assay: Antibacterial activity against efflux pump-efficient Escherichia coli MG1655 assessed as bacterial growth inhibition; type: functional
Escherichia coli [3] = assay: Antimicrobial activity against wild type Escherichia coli MG1655 assessed as inhibition of microbial growth; type: functional
Staphylococcus aureus = assay: Antibacterial activity against Staphylococcus aureus assessed as reduction in bacterial growth incubated for 24 hrs by broth microdilution method; type: functional

| SMILES | IC50 (L02) [µM] | IC50 (MGC-803) [µM] | IC50 (SK-OV-3) [µM] | IC50 (NCI-H460) [µM] | MIC (Escherichia coli [1]) [µg/mL] | MIC (Escherichia coli [2]) [µg/mL] | MIC (Escherichia coli [3]) [µg/mL] | MIC (Staphylococcus aureus) [µg/mL] |
| --- | --- | --- | --- | --- | --- | --- | --- | --- |
| Cc1cccc(N2CC(COC(=O)[C@]3(C)CCC[C@]4(C)c5ccc(C(C)C)cc5CCC34)OC2=O)c1 (stereo partly specified) | ≥ 26.4 | 3.82 | ≥ 4.1 | ≥ 4.3 | – | – | – | – |
| CC(C)c1ccc2c(c1)CCC1[C@](C)(C(=O)OCC3CN(c4ccccc4)C(=O)O3)CCC[C@]21C (stereo partly specified) | ≥ 26.4 | 3.82 | ≥ 4.1 | ≥ 4.3 | – | – | – | – |
| Cc1ccccc1N1CC(COC(=O)[C@]2(C)CCC[C@]3(C)c4ccc(C(C)C)cc4CCC23)OC1=O (stereo partly specified) | ≥ 26.4 | 3.82 | ≥ 4.1 | ≥ 4.3 | – | – | – | – |
| C#Cc1cccc(N2CC(COC(=O)[C@]3(C)CCC[C@]4(C)c5ccc(C(C)C)cc5CCC34)OC2=O)c1 (stereo partly specified) | ≥ 26.4 | 3.82 | ≥ 4.1 | ≥ 4.3 | – | – | – | – |
| Nc1cc(-c2ccc(N3C[C@H](CO)OC3=O)cc2F)ccc1O | – | – | – | – | 64 | 16 (≈ 50.3 µM) | > 64 | 4 (≈ 12.6 µM) |
| COc1ccc(N2CC(COC(=O)[C@]3(C)CCC[C@]4(C)c5ccc(C(C)C)cc5CCC34)OC2=O)cc1 (stereo partly specified) | ≥ 26.4 | 3.82 | ≥ 4.1 | ≥ 4.3 | – | – | – | – |
| CC(C)c1ccc2c(c1)CCC1[C@](C)(C(=O)OCC3CN(c4ccc(Br)cc4)C(=O)O3)CCC[C@]21C (stereo partly specified) | ≥ 26.4 | 3.82 | ≥ 4.1 | ≥ 4.3 | – | – | – | – |
| N#Cc1ccc(O)cc1-c1ccc(N2C[C@H](CO)OC2=O)cc1F | – | – | – | – | 128 | 64 (≈ 195 µM) | > 256 | 32 (≈ 97.5 µM) |
| COc1cccc(NCC(O)COC(=O)[C@]2(C)CCC[C@]3(C)c4ccc(C(C)C)cc4CCC23)c1 (stereo partly specified) | ≥ 28.3 | 7.1 | ≥ 14.9 | ≥ 15.6 | – | – | – | – |
| O=C1O[C@@H](CO)CN1c1ccc(-c2cc(O)ccc2F)c(F)c1 | – | – | – | – | 16 | 16 (≈ 49.8 µM) | > 256 | 2 (≈ 6.23 µM) |
| COc1ccccc1NCC(O)COC(=O)[C@]1(C)CCC[C@]2(C)c3ccc(C(C)C)cc3CCC12 (stereo partly specified) | ≥ 28.3 | 7.1 | ≥ 14.9 | ≥ 15.6 | – | – | – | – |
| Cc1ccc(N2CC(COC(=O)[C@]3(C)CCC[C@]4(C)c5ccc(C(C)C)cc5CCC34)OC2=O)cc1 (stereo partly specified) | ≥ 26.4 | 3.82 | ≥ 4.1 | ≥ 4.3 | – | – | – | – |
| O=C1O[C@@H](CO)CN1c1ccc(-c2cccc(O)c2F)c(F)c1 | – | – | – | – | 32 | 32 (≈ 99.6 µM) | > 256 | 2 (≈ 6.23 µM) |
| Cc1cccc(NCC(O)COC(=O)[C@]2(C)CCC[C@]3(C)c4ccc(C(C)C)cc4CCC23)c1 (stereo partly specified) | ≥ 28.3 | 7.1 | ≥ 14.9 | ≥ 15.6 | – | – | – | – |
| Nc1ccc(-c2ccc(N3C[C@H](CO)OC3=O)cc2F)cc1O | – | – | – | – | 32 | 32 (≈ 101 µM) | > 64 | 4 (≈ 12.6 µM) |
| COc1ccc(NCC(O)COC(=O)[C@]2(C)CCC[C@]3(C)c4ccc(C(C)C)cc4CCC23)cc1 (stereo partly specified) | ≥ 28.3 | 7.1 | ≥ 14.9 | ≥ 15.6 | – | – | – | – |
| CC(C)c1ccc2c(c1)CCC1[C@](C)(C(=O)OCC(O)CNc3cccc(F)c3)CCC[C@]21C (stereo partly specified) | ≥ 28.3 | 7.1 | ≥ 14.9 | ≥ 15.6 | – | – | – | – |
| CC(C)c1ccc2c(c1)CCC1[C@](C)(C(=O)OCC(O)CNc3ccccc3)CCC[C@]21C (stereo partly specified) | ≥ 28.3 | 7.1 | ≥ 14.9 | ≥ 15.6 | – | – | – | – |
| CC(C)c1ccc2c(c1)CCC1[C@](C)(C(=O)OCC(O)CNc3ccccc3F)CCC[C@]21C (stereo partly specified) | ≥ 28.3 | 7.1 | ≥ 14.9 | ≥ 15.6 | – | – | – | – |
| CC(C)c1ccc2c(c1)CCC1[C@](C)(C(=O)OCC(O)CNc3cccc(Br)c3)CCC[C@]21C (stereo partly specified) | ≥ 28.3 | 7.1 | ≥ 14.9 | ≥ 15.6 | – | – | – | – |
| CC(C)c1ccc2c(c1)CCC1[C@](C)(C(=O)OCC(O)CNc3ccc(Cl)cc3)CCC[C@]21C (stereo partly specified) | ≥ 28.3 | 7.1 | ≥ 14.9 | ≥ 15.6 | – | – | – | – |
| CC(C)c1ccc2c(c1)CCC1[C@](C)(C(=O)OCC3CN(c4cccc(F)c4)C(=O)O3)CCC[C@]21C (stereo partly specified) | ≥ 26.4 | 3.82 | ≥ 4.1 | ≥ 4.3 | – | – | – | – |
| O=C1O[C@@H](CO)CN1c1ccc(-c2ccc(F)c(O)c2)c(F)c1 | – | – | – | – | 16 | 16 (≈ 49.8 µM) | > 64 | 2 (≈ 6.23 µM) |
| CC(C)c1ccc2c(c1)CCC1[C@](C)(C(=O)OCC3CN(c4cccc(Br)c4)C(=O)O3)CCC[C@]21C (stereo partly specified) | ≥ 26.4 | 3.82 | ≥ 4.1 | ≥ 4.3 | – | – | – | – |
